From ChEMBL document CHEMBL1141818, “Annonaceous acetogenins: recent progress” (J Nat Prod, 1999)
Values after ≈ are worked out from the molar mass of the structure shown.

Assays:
[1] = Inhibition of NADH oxidase
[2] = test system: Bel-7402; assay: Cytotoxicity against human Bel-7402 cells; assay type: functional, cell-based
[3] = test system: HCT-8; assay: Cytotoxicity against human HCT8 cells; assay type: functional, cell-based
[4] = test system: KB; assay: Cytotoxicity against human KB cells; assay type: functional, cell-based; conditions: for IC50: Homo sapiens, KB
[5] = test system: A2780; assay: Cytotoxicity against human A2780 cells; assay type: functional, cell-based
[6] = test system: HL-60; assay: Cytotoxicity against human HL-60 cells; assay type: functional, cell-based
[7] = test system: HT-29; assay: Cytotoxicity against human HT-29 cells; assay type: functional; conditions: for EC50: Homo sapiens, HT-29, read-out: ED50 (the source's name)
[8] = test system: U-251; assay: Cytotoxicity against human U251 cells; assay type: functional, cell-based
[9] = test system: RPMI-7951; assay: Cytotoxicity against human RPMI-7951 cells; assay type: functional; conditions: read-out: ED50 (the source's name)
[10] = test system: MCF7; assay: Cytotoxicity against human MCF7 cells; assay type: functional; conditions: for EC50: Homo sapiens, MCF7, read-out: ED50 (the source's name)
[11] = test system: PC-3; assay: Cytotoxicity against human PC-3 cells; assay type: functional; conditions: for EC50: Homo sapiens, PC-3, read-out: ED50 (the source's name)
[12] = test system: A549; assay: Cytotoxicity against human A549 cells; assay type: functional; conditions: for EC50: Homo sapiens, A549, read-out: ED50 (the source's name)
[13] = test system: MIA PaCa-2; assay: Cytotoxicity against human MIA PaCa2 cells; assay type: functional; conditions: for EC50: Homo sapiens, MIA PaCa-2, read-out: ED50 (the source's name)
[14] = Cytotoxicity against human Hep G2 cells; assay type: functional; conditions: HepG2, read-out: ED50 (the source's name)
[15] = Cytotoxicity against human CCM2 cells; assay type: functional; conditions: read-out: ED50 (the source's name)
[16] = Cytotoxicity against human Hep2.2.15 cells; assay type: functional; conditions: HepG2 2.2.15, read-out: ED50 (the source's name)
[17] = test system: Aedes aegypti; assay: Insecticidal activity against yellow fever mosquito; assay type: functional
[18] = test system: Artemia; assay: Toxicity in brine shrimp; assay type: organism-based; conditions: in vivo
[19] = test system: A498; assay: Cytotoxicity against human A-498 cells; assay type: functional; conditions: for EC50: Homo sapiens, A498, read-out: ED50 (the source's name)
[20] = test system: MCF7; assay: Cytotoxicity against human wild type MCF7 cells at 1 ug/ml; assay type: functional
[21] = test system: Blattella germanica; assay: Ratio of LT50 for Blattella germanica Muncie fifth instars to LT50 for Blattella germanica Jwax fifth instars; assay type: functional
[22] = test system: Blattella germanica; assay: Ratio of LT50 for Blattella germanica Muncie second instars to LT50 for Blattella germanica Jwax second instars; assay type: functional
[23] = test system: X5563; assay: Cytotoxicity against human X5563 cells; assay type: functional

CCCCCCCCCC[C@H](O)[C@@H]1CC[C@H]([C@H]2CC[C@@H]([C@H](O)CCCCCCCC[C@@H](O)CC3=C[C@H](C)OC3=O)O2)O1 [ROLLIMEMBRIN]
IC50 [1]: 0.33 nM

CCCCCCCCCCCC[C@@H](O)[C@H](O)CC[C@@H](O)[C@H](O)CCCC[C@H](O)CCCCC[C@H](CC1=C[C@@](C)(O)OC1=O)OC(C)=O [DONNAIENIN D]
IC50 [2]: > 10 µg/mL
IC50 [3]: > 10 µg/mL
IC50 [4]: > 10 µg/mL

CCCCCCCCCCCCCC[C@H](O)[C@@H]1C[C@@H](O)[C@@H]([C@@H](O)CC[C@@H](O)CCCCC[C@@H](O)CC2=C[C@H](C)OC2=O)O1 [DONNAIENIN]
IC50 [2]: 6.7 µg/mL (≈ 10.9 µM)
IC50 [3]: 6.6 µg/mL (≈ 10.8 µM)
IC50 [4]: > 10 µg/mL

CCCCCCCCCCCCCC[C@H](O)[C@H]1CC[C@H]([C@@H](CC(O)CCCCCCCCCCC2=C[C@H](C)OC2=O)OC(C)=O)O1 (some centres not stated) [TONKININ C]
IC50 [5]: > 10 µg/mL
IC50 [6]: 0.00042 µg/mL (≈ 0.000645 µM)
IC50 [3]: 0.86 µg/mL (≈ 1.32 µM)
IC50 [4]: > 10 µg/mL

CCCCCCCCCCCC[C@H](O)[C@H]1CC[C@H]([C@H](O)CC(O)CCCCCCCCCC(=O)CCC2=C[C@H](C)OC2=O)O1 (some centres not stated) [TONKININ A]
IC50 [5]: > 10 µg/mL
IC50 [6]: 0.016 µg/mL (≈ 0.0257 µM)
IC50 [3]: 0.59 µg/mL (≈ 0.947 µM)
IC50 [4]: > 10 µg/mL

CCCCCCCCCC[C@H](O)[C@@H]1CC[C@@H]([C@@H]2CC[C@@H]([C@@H](O)CCC(O)CCCCCCCCC[C@@H](O)CC3=C[C@H](C)OC3=O)O2)O1 (some centres not stated) [ARTICULIN]
EC50 [7]: 0.6 µg/mL (≈ 0.9 µM)
EC50 ([8]; read-out: ED50 (the source's name)): 0.01 µg/mL (≈ 0.015 µM)
EC50 [9]: 0.01 µg/mL (≈ 0.015 µM)
EC50 [10]: 0.004 µg/mL (≈ 0.006 µM)
EC50 [11]: 1.9 µg/mL (≈ 2.85 µM)
EC50 [12]: 0.006 µg/mL (≈ 0.009 µM)
EC50 [13]: 1 µg/mL (≈ 1.5 µM)

CCCCCCCCCCCCCCCC[C@@H](O)[C@H](O)CCCCCCCCCCCCCCC1=C[C@H](C)OC1=O [TONKINELIN]
IC50 [5]: > 10 µg/mL
IC50 [6]: 1 µg/mL (≈ 1.73 µM)
IC50 [3]: 6.7 µg/mL (≈ 11.6 µM)
IC50 [4]: > 10 µg/mL

CCCCCCCCCC[C@@H](O)[C@@H]1CC[C@@H]([C@@H]2CC[C@@H]([C@@H](O)CCCCC(=O)CCCCCCCC3=C[C@H](C)OC3=O)O2)O1 [GUANACONNE]
IC50 [8]: 1.5 nM

CCCCCCCCCCCC[C@@H](O)[C@H]1CC[C@H]([C@H](O)CC/C=C\CCCCCC[C@@H]2CC(CC(C)=O)C(=O)O2)O1 (mixture of isomers)
EC50 [14]: 0.047 µg/mL
EC50 [15]: 0.085 µg/mL
EC50 [16]: 0.14 µg/mL

CCCCCCCCCC[C@@H](O)[C@H]1CC[C@@H]([C@H]2CC[C@H]([C@H](O)CCC[C@H](O)CCCCCCCC3=C[C@H](C)OC3=O)O2)O1 [TRILOBIN]
LC50 [17]: 0.67 µg/mL (≈ 1.1 µM)

CCCCCCCCCC[C@@H](O)[C@@H]1CC[C@H]([C@H]2CC[C@@H]([C@@H](O)CCCCCCCCCCC3=C[C@H](C)OC3=O)O2)O1 [MEMBRAROLLIN]
IC50 [1]: 0.3 nM

CCCCCCCCCC[C@H](O)[C@@H](O)CCCC[C@H]1CC[C@H]([C@H]2CC[C@H]([C@H](O)CCCCC[C@@H](O)CC3=C[C@H](C)OC3=O)O2)O1 (stereo in doubt) [GLACIN B]
LC50 [18]: 3.1 ×10⁻¹ ug/ml
ED50 [7]: 1.9 ×10⁻² ug/ml
ED50 [10]: 1.8 ×10⁻³ ug/ml
ED50 [11]: 1.2 µg/mL (≈ 1.88 µM)
ED50 [19]: 1.4 µg/mL (≈ 2.19 µM)
ED50 [12]: 1.6 ×10⁻¹ ug/ml
ED50 [13]: 2.8 ×10⁻¹ ug/ml

CCCCCCCCCC[C@@H](O)[C@H]1CC[C@@H]([C@H]2CC[C@H]([C@H](O)CCCCCCCCCC[C@@H]3CC(CC(C)=O)C(=O)O3)O2)O1 (mixture of isomers)
LC50 [18]: 2 ×10⁻² ug/ml
EC50 [7]: 1.6 µg/mL
ED50 [10]: 1.3 ×10⁻⁸ ug/ml
EC50 [11]: 2.8 µg/mL
EC50 [19]: 0.49 µg/mL
ED50 [12]: 4.6 ×10⁻⁴ ug/ml
EC50 [13]: 0.069 µg/mL

CCCCCCCCCC[C@H](O)[C@H]1CC[C@H]([C@H](O)CCCCCC(O)CCCCCCC2CC(CC(C)=O)C(=O)O2)O1 (mixture of isomers)
LC50 [18]: 9.7 ×10⁻² ug/ml
EC50 [7]: 0.35 µg/mL
EC50 [10]: 0.0011 µg/mL
EC50 [11]: 2.24 µg/mL
EC50 [19]: 0.0067 µg/mL
EC50 [12]: 0.21 µg/mL
EC50 [13]: 0.0095 µg/mL

CCCCCCCCCCCC[C@@H](O)[C@H]1CC[C@H]([C@H](O)CC(O)CCCCCCCCCC(=O)CCC2=C[C@H](C)OC2=O)O1 (some centres not stated) [TONKININ B]
IC50 [5]: > 10 µg/mL
IC50 [6]: 0.06 µg/mL (≈ 0.0963 µM)
IC50 [3]: 2.4 µg/mL (≈ 3.85 µM)
IC50 [4]: > 10 µg/mL

CCCCC[C@H](O)CCCC[C@H](O)[C@H]1CC[C@H]([C@H]2CC[C@H]([C@H](O)CCCC[C@H](O)CCCCCCCC3=C[C@H](C)OC3=O)O2)O1 [PURPURENIN]
LC50 [18]: 2.9 ×10⁻² ug/ml
EC50 [7]: 0.32 µg/mL (≈ 0.501 µM)
EC50 [10]: 1.7 µg/mL (≈ 2.66 µM)
EC50 [11]: 1.1 µg/mL (≈ 1.72 µM)
EC50 [19]: 1.3 µg/mL (≈ 2.03 µM)
EC50 [12]: 1.3 µg/mL (≈ 2.03 µM)
EC50 [13]: 2 µg/mL (≈ 3.13 µM)

CCCCCCCCCCCC[C@H](O)[C@H]1CC[C@H]([C@H](O)CCCCCC(O)CCCCCCC2CC(CC(C)=O)C(=O)O2)O1 (mixture of isomers) [(2,4-CIS/TRANS)-SQUAMOXINE B]
LC50 [18]: 4.6 ×10⁻² ug/ml
EC50 [7]: 0.0027 µg/mL
EC50 [10]: 0.0014 µg/mL
EC50 [11]: 0.05 µg/mL
EC50 [19]: 0.004 µg/mL
EC50 [12]: 0.0038 µg/mL
ED50 [13]: 8.3 ×10⁻⁴ ug/ml

CCCCCCCCCC[C@@H](O)[C@H]1CC[C@H]([C@H]2CC[C@H]([C@H](O)CCCCCCCC[C@@H](O)CCCC3=C[C@H](C)OC3=O)O2)O1 [BULLACIN]
LC50 [18]: 1.9 ×10⁻² ug/ml
EC50 [7]: 0.0045 µg/mL (≈ 0.00722 µM)
ED50 [10]: 2.5 ×10⁻⁷ ug/ml
EC50 [11]: > 1 µg/mL
EC50 [19]: > 1 µg/mL
ED50 [12]: 9 ×10⁻⁷ ug/ml
EC50 [13]: 0.41 µg/mL (≈ 0.658 µM)

CCCCCCCCCCCC[C@H](O)[C@H](O)CC[C@H](O)[C@@H]1CC[C@@H](C[C@H](O)CCCCC[C@@H](O)CC2=C[C@@](C)(O)OC2=O)O1 [GARDNERININ]
IC50 [2]: > 10 µg/mL
IC50 [3]: 6.6 µg/mL (≈ 10.5 µM)
IC50 [4]: > 10 µg/mL

CCCCCCCCCCCC[C@@H](O)[C@H]1CC[C@H]([C@H](O)CCCC[C@H](O)CCCCC[C@H](CC2=C[C@@](C)(O)OC2=O)OC(C)=O)O1 [DONNAIENIN C]
IC50 [2]: 7.1 µg/mL (≈ 10.8 µM)
IC50 [3]: > 10 µg/mL
IC50 [4]: > 10 µg/mL

CCCCCCCCCC[C@H](O)[C@H]1CC[C@H]([C@H]2CC[C@H]([C@H](O)CCCCCCCCCC[C@@H]3CC(CC(C)=O)C(=O)O3)O2)O1 (mixture of isomers) [BULLATACINONE]
LC50 [18]: 7.4 ×10⁻² ug/ml
EC50 [7]: 1.7 µg/mL
EC50 [10]: 1.8 µg/mL
EC50 [11]: 2.6 µg/mL
EC50 [19]: 1.8 µg/mL
EC50 [12]: 1.9 µg/mL
EC50 [13]: 1.1 µg/mL

CCCCCCC(O)CCC[C@H](O)[C@@H]1CC[C@@H]([C@@H]2CC[C@H]([C@H](O)CCCCCCCCCCC3=C[C@H](C)OC3=O)O2)O1 (some centres not stated) [CAROLIN C]
Activity [20]: 50%
ED50 [4]: 2 ×10⁻⁴ ug/ml

CCCCCCCCCC[C@H](O)[C@H]1CC[C@H]([C@H](O)CC[C@H](O)[C@@H]2CC[C@@H](CCCCCCC[C@@H](O)CC3=C[C@H](C)OC3=O)O2)O1 [BULLATALICIN]
LC50 [17]: 0.1 µg/mL (≈ 0.157 µM)
Ratio [21]: 1.8
Ratio [22]: 0.9
Activity [23]: 67%
